# Test system: necrotic tissue (infarcted myocardial tissue)
# Assay: MRI analysis of contrast agents in vivo: rats, left main coronary artery ligation and reperfusion, MR images compared with tissue histology
# Set-up: species or system rat
# Protocol: Contrast agents were prepared following the methods outlined in Examples 1-11 above. Rats (250-300 g—obtained from where?) were used for the following studies detailed below.
# Rats were anesthetized by administration of isoflurane (5% induction, 1-2% maintenance) and positioned in an animal holder. The blood pressure and heart rate of the rats were monitored prior to ligation to provide a baseline condition. The rats were subjected to ligation of the left main coronary artery under aseptic conditions. During the ligation, the left thoracic cage of the rat, at the 4th intercostal space was opened to expose the heart muscle. The pericardial sac was cut open and the left main coronary artery was ligated at 2-4 mm from its origin using 6-0 prolene for a period of 2 h. The ligature was then removed to allow for the reperfusion of the infarcted myocardial tissue. Following the ligation procedure, bupivacaine and Cicatrin were applied to the incision. […]
# The contrast agent was the intravenously injected 4 hours following the start of myocardial reperfusion. The blood pressure and heart rate were monitored during the ligation procedure and the administration of the contrast agent. The body temperature of the rats was monitored with a rectal probe and maintained at the physiological level by the circulating warm water. […]
smiles,measurement,setting,value
O=C([O-])CN(CCN(CCN(CC(=O)[O-])CC(=O)Nc1ccc(NC(=O)CN(CCN(CCN(CC(=O)[O-])CC(=O)O)CC(=O)O)CC(=O)[O-])cc1)CC(=O)O)CC(=O)[O-].[Na+].[Na+].[Na+].[Na+].[Na+] [RF 1002],contrast enhancement in MR images versus necrotic tissue visible by staining of the tissue sample (binding to necrotic tissue),"5 mg/kg and 40 mg/kg intravenous 4 hours after start of reperfusion, 7 Tesla MRI about 4 to 16 hours after administration",necrotic tissue visible by staining of the tissue sample corresponds to the same region exhibiting contrast enhancement in the MR images
same,"visibility of contrast enhancement on the MRI, dose comparison",40 mg/kg versus 5 mg/kg intravenous,more defined at the higher dosage of contrast agent

# Source: patent US20140065075A1, “TARGETED CONTRAST AGENTS AND USES THEREOF” (RF THERAPEUTICS INC., priority 2011, published 2014)
